The test system of data set [1] is Influenza virus A/WSN/33 (H1N1). Put plainly: microbe, parasite or virus in culture. The class given is cell-based. As to conditions: 72 h.
The nature of another data set: in vitro. To be noted: bovine; for CC50 at 72 h: mdbk cells.
Setting [2] is: viral strain: Influenza virus A/WSN/33 (H1N1), Cell: MDBK, […], 3 days, read-out: IC50.

In brackets after ≈: the same amount, converted by molar mass. Read-outs that look alike come from different tables or passages of the source.

One may read the IC50 as the concentration at which inhibition is half-maximal. For `CC(=O)N[C@H]1CC[C@@]23Oc4c(c(O)cc5c4CNC5=O)C[C@]2(C)[C@@H](C)CC[C@H]3C1(C)C` [Compound (47b), (6aR, 7S, 9aS, 11S, 13aS)-11-acetylamino-2,3,6,6a, 7,8,9,9a, 10, 11, 12, 13-dodecahydro-5-hydroxy-6a, 7, 10, 10-tetramethyl-3-oxo-1H-benzo[8,8a][1]benzopyrano[2,3-e]isoindole], in data set [1] (setting [2]), the 50% inhibitory concentration (IC50) came out at 0.02 µg/mL (≈ 0.0469 µM). The compound further came in with a CC50 in the data set “in vitro” greater than 10 µg/mL.
In the same order, the values of `C[C@H]1CC[C@H]2C(C)(C)[C@H](OS(C)(=O)=O)CC[C@]23Oc2c(c(O)cc4c2CNC4=O)C[C@]13C` [Compound (13b), (6a R, 7 S, 9a S, 11 R, 13a S)-2,3,6,6a, 7,8,9,9a, 10, 11, 12, 13-dodecahydro-5-hydroxy-6a, 7, 10, 10-tetramethyl-11-methanesulfonyloxy-3-oxo-1H-benzo[8,8a][1]benzopyrano[2,3-e]isoindole] are 0.02 µg/mL (≈ 0.0431 µM) and 5 µg/mL (≈ 10.8 µM).
For `C[C@H]1CC[C@H]2C(C)(C)[C@@H](NS(=O)(=O)c3ccccc3)CC[C@]23Oc2c(c(O)cc4c2CNC4=O)C[C@]13C` [Compound (47d), (6aR, 7S, 9aS, 11S, 13aS)-2,3,6,6a, 7,8,9,9a, 10, 11, 12, 13-dodecahydro-5-hydroxy-6a, 7, 10, 10-tetramethyl-11-phenylsulfonylamino-3-oxo-1H-benzo[8,8a][1]benzopyrano[2,3-e]isoindole], in that order: 0.003 µg/mL (≈ 0.00572 µM) and 5 to 10 µg/mL (≈ 9.53 to 19.1 µM).
Consider `C[C@H]1CC[C@H]2C(C)(C)C(=NO)CC[C@]23Oc2c(c(OP(=O)(O)O)cc4c2CNC4=O)C[C@]13C.[Na]` [Compound (64), (6aR, 7S, 9aS, 13aS)-2,3,6,6a, 7,8,9,9a, 10, 11, 12, 13-dodecahydro-11-hydroxyimino-5-dihydroxyphosphinyloxy-6a, 7, 10, 10-tetramethyl-3-oxo 1H-benzo[8,8a][1]benzopyrano[2,3-e]isoindole monosodium salt], for which 0.001 µg/mL corresponded to half-maximal inhibition in data set [1] (H1N1|WSN, MDBK) (IC50). Further, the CC50 in the data set “in vitro” is greater than 10 µg/mL.
On to `C[C@H]1CC[C@H]2C(C)(C)[C@@H](O)[C@@H](OC(=O)c3ccccc3)C[C@]23Oc2c(c(O)cc4c2CNC4=O)C[C@]13C` [Compound (50c), (6a R, 7 S, 9a S, 11 R, 12 S, 13a S)-12-benzoyloxy-2,3,6,6a, 7,8,9,9a, 10, 11, 12, 13-dodecahydro-5,11-dihydroxy-6a, 7, 10, 10-tetramethyl-3-oxo-1H-benzo[8,8a][1]benzopyrano[2,3-e]isoindole], for which the IC50 in data set [1] (setting [2]) was determined as 0.05 µg/mL (≈ 0.0989 µM). Further, the CC50 in “in vitro” is 5 to 10 µg/mL (≈ 9.89 to 19.8 µM).
As to `C[C@H]1CC[C@H]2C(C)(C)[C@@H](O)CC[C@]23Oc2c(c(O)cc4c2C(=O)NC4=O)C[C@]13C` [(32a), (6aR, 7S, 9aS, 115, 13aS)-2,3,6,6a, 7,8,9,9a, 10, 11, 12, 13-dodecahydro-5, 11-dihydroxy-6a, 7, 30, 10-tetramethyl-13-dioxo-1H-benzo[8,8a][1]benzopyrano[2,3-e]isoindole], in data set [1] (setting [2]), the IC50 fell in the range of 0.001 to 0.002 µg/mL (≈ 0.0025 to 0.00501 µM). Also, the CC50 at 72 h in the data set “in vitro” turned out to be 20 µg/mL (≈ 50.1 µM).
Turning to `C[C@H]1CC[C@H]2C(C)(C)[C@@H](O)[C@@H](OS(C)(=O)=O)C[C@]23Oc2c(c(O)cc4c2CNC4=O)C[C@]13C` [Compound (50d), (6a R, 7 S, 9a S, 11 R, 12 S, 13a S)-2,3,6,6a, 7,8,9,9a, 10, 11,12,13-dodecahydro-5,11-dihydroxy-6a, 7,10, 10-tetramethyl-12-methanesulfonyloxy-3-oxo-1H-benzo[8,8a][1]benzopyrano[2,3-e]isoindole], in data set [1] (setting [2]), the IC50 turned out to be 0.0016 µg/mL (≈ 0.00334 µM). Moreover, the CC50 in “in vitro” is greater than 10 µg/mL.
As for `C[C@H]1CC[C@H]2C(C)(C)[C@@H](O)CC[C@]23Oc2c(c(O)cc4c2C(O)NC4=O)C[C@]13C` (stereo partly drawn) [Compound (30a), (6aR, 7S, 9aS, 11S, 13aS)-2,3,6,6a, 7,8,9,9a, 10, 11, 12, 13-dodecahydro-1,5, 11-trihydroxy-6a, 7, 10, 10-tetramethyl-3-oxo-1H-benzo[8,8a][1]benzopyrano[2,3-e]isoindole], in data set [1] (setting [2]), the 50% inhibitory concentration (IC50) stood at 0.002 µg/mL (≈ 0.00498 µM). The same compound displayed a CC50 in the data set “in vitro” greater than 40 µg/mL.
In the same order, the values of `C[C@H]1CC[C@H]2C(C)(C)C(=NNC(N)=O)CC[C@]23Oc2c(c(O)cc4c2CNC4=O)C[C@]13C` [Compound (51d), (6a R, 7 S, 9a S, 13a S)-2,3,6,6a, 7,8,9,9a, 10, 11, 12, 13-dodecahydro-5-hydroxy-6a, 7, 10, 10-tetramethyl-3-oxo-11-ureidoimino-1H-benzo[8,8a][1]benzopyrano[2,3-e]isoindole] are 0.005 µg/mL (≈ 0.0113 µM) and greater than 10 µg/mL.
As for `C[C@H]1CC[C@H]2C(C)(C)[C@@H](O)CC[C@]23Oc2c(c(O)cc4c2CNC4=O)C[C@]13C` [(2)], the IC50 in data set [1] (setting [2]) came to 0.001 µg/mL (≈ 0.00259 µM). In “in vitro”, this compound returned a CC50 at 72 h of 25 µg/mL (≈ 64.9 µM).
Take `C[C@H]1CC[C@H]2C(C)(C)[C@@H](NS(C)(=O)=O)CC[C@]23Oc2c(c(O)cc4c2CNC4=O)C[C@]13C` [Compound (47c), (6aR, 7S, 9aS, 11S, 13aS)-2,3,6,6a, 7,8,9,9a, 10, 11, 12, 13-dodecahydro-5-hydroxy-6a, 7, 10, 10-tetramethyl-11-methanesulfonylamino-3-oxo-1H-benzo[8,8a][1]benzopyrano[2,3-e]isoindole]: the IC50 in data set [1] (setting [2]) amounted to 0.01 µg/mL (≈ 0.0216 µM). Further, the CC50 in “in vitro” is greater than 10 µg/mL.
In the same order, the values of `C[C@H]1CC[C@H]2C(C)(C)[C@@H](O)CC[C@]23Oc2c(c(O)cc4c2CNC4)C[C@]13C` [Compound (34a), (6aR, 7S, 9aS, 11S, 13aS)-2,3,6,6a, 7,8,9,9a, 10, 11, 12, 13-dodecahydro-5, 11-dihydroxy-6a, 7,10,10-tetramethyl-1H-benzo[8,8a][1]benzopyrano[2,3-e]isoindole] are 0.04 µg/mL (≈ 0.108 µM) and greater than 10 µg/mL.
In the same order, the values of `CC(=O)O[C@H]1C[C@@]23Oc4c(c(O)cc5c4CNC5=O)C[C@]2(C)[C@@H](C)CC[C@H]3C(C)(C)[C@H]1O` [Compound (50b), (6a R, 7 S, 9a S, 11 R, 12 S, 13a S)-12-acetoxy-2,3,6,6a,7,8,9,9a, 10, 11, 12, 13-dodecahydro-5,11-dihydroxy-6a, 7, 10, 10-tetramethyl-3-oxo-1H-benzo[8,8a][1]benzopyrano[2,3-e]isoindole] are 0.01 µg/mL (≈ 0.0225 µM) and greater than 10 µg/mL.
For `C[C@H]1CC[C@H]2C(C)(C)C(=NO)CC[C@]23Oc2c(c(O)cc4c2CNC4=O)C[C@]13C` [Compound (51a), (6a R, 7 S, 9a S, 13a S)-2,3,6,6a, 7,8,9,9a, 10, 11, 12, 13-dodecahydro-5-hydroxy-11-hydroxyimino-6a, 7, 10, 10-tetramethyl-3-oxo-1H-benzo[8,8a][1]benzopyrano[2,3-e]isoindole], in that order: 0.0016 µg/mL (≈ 0.00402 µM) and greater than 10 µg/mL.
Take `C[C@H]1CC[C@H]2C(C)(C)[C@H]3O[C@H]3C[C@]23Oc2c(c(O)cc4c2CNC4=O)C[C@]13C` [Compound (43a), (6a R, 7 S, 9a S, 11 R, 12 S, 13a S)-11,12-epoxy-2,3,6,6a, 7,8,9,9a, 10, 11, 12, 13-dodecahydro-5-hydroxy-6a, 7, 10, 10-tetramethyl-3-oxo-1H-benzo[8,8a][1]benzopyrano[2,3-e]isoindole]: in data set [1] (setting [2]), the half-inhibitory concentration (IC50) is 0.001 to 0.002 µg/mL (≈ 0.00261 to 0.00522 µM). Besides, the CC50 in the data set “in vitro” is 40 µg/mL (≈ 104 µM).

For the origin of these results see patent publication EP0855398B1, “SESQUITERPENE DERIVATIVES HAVING ANTIVIRAL ACTIVITY” (SHIONOGI & CO., LTD., priority 1995, dated 1997).
